What all share (experiment): relative viability (nuclei count vs DMSO), 5 days (fraction); higher = more cells survive
Compound in the assay “Dactolisib + AZD7762”: Cn1c(=O)n(-c2ccc(C(C)(C)C#N)cc2)c2c3cc(-c4cnc5ccccc5c4)ccc3ncc21 [Dactolisib] + NC(=O)Nc1cc(-c2cccc(F)c2)sc1C(=O)N[C@H]1CCCNC1 [AZD7762] (partner 0.2 µM)
The method, boiled down: (§1)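 One day after seeding in 1536-well plates, lung cancer cell lines were dosed by pin tool. Dosing was either single-drug or a fixed anchor-drug dose plus five library-drug doses (not always all listed) in √10 steps. After 5 days, nuclei were stained in one fix-and-stain step and counted on 4× images, and relative viability is the nuclei count of treated wells over that of vehicle wells, given as the median of duplicate plates.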

Compound in the assay “AZ505 + Crizotinib”: C1CCC(CC1)N(CCNCCC2=C3C(=C(C=C2)O)NC(=O)CO3)C(=O)CCNCCC4=CC(=C(C=C4)Cl)Cl [AZ505] + C[C@@H](Oc1cc(-c2cnn(C3CCNCC3)c2)cnc1N)c1c(Cl)ccc(F)c1Cl [Crizotinib] (partner 1 µM)
The method, boiled down: as §1

Compound in the assay “Dactolisib + Bortezomib”: Cn1c(=O)n(-c2ccc(C(C)(C)C#N)cc2)c2c3cc(-c4cnc5ccccc5c4)ccc3ncc21 [Dactolisib] + CC(C)C[C@H](NC(=O)[C@H](Cc1ccccc1)NC(=O)c1cnccn1)B(O)O [Bortezomib] (partner 0.002 µM)
The method, boiled down: as §1

Compound in the assay “AZ505 + Bortezomib”: C1CCC(CC1)N(CCNCCC2=C3C(=C(C=C2)O)NC(=O)CO3)C(=O)CCNCCC4=CC(=C(C=C4)Cl)Cl [AZ505] + CC(C)C[C@H](NC(=O)[C@H](Cc1ccccc1)NC(=O)c1cnccn1)B(O)O [Bortezomib] (partner 0.002 µM)
In outline:
as §1

For the cell line NCI-H2126, the relative viability with Dactolisib + AZD7762 (first compound 0.002 µM) is 0.946; in the assay with Dactolisib + AZD7762 (first compound 0.006325 µM) it was 0.925; with Dactolisib + AZD7762 (first compound 0.02 µM), 0.949; with Dactolisib + AZD7762 (first compound 0.06325 µM), 0.803; with Dactolisib + AZD7762 (first compound 0.2 µM), 0.623; with AZ505 + Crizotinib (first compound 0.08 µM), 0.98. For the same cell line, the relative viability amounted to 1.05 with AZ505 + Crizotinib (first compound 0.253 µM); 0.982 with AZ505 + Crizotinib (first compound 0.8 µM); 1.03 with AZ505 + Crizotinib (first compound 2.53 µM); 1.08 in the assay with AZ505 + Crizotinib (first compound 8 µM); 1.19 with Dactolisib + Bortezomib (first compound 0.002 µM); 1.16 in the assay with Dactolisib + Bortezomib (first compound 0.006325 µM). For the same cell line, the relative viability came to 1.12 in the assay with Dactolisib + Bortezomib (first compound 0.02 µM); 0.921 in the assay with Dactolisib + Bortezomib (first compound 0.06325 µM); 0.551 with Dactolisib + Bortezomib (first compound 0.2 µM); 1.11 with AZ505 + Bortezomib (first compound 0.08 µM); 1.09 with AZ505 + Bortezomib (first compound 0.253 µM); 1.08 with AZ505 + Bortezomib (first compound 0.8 µM). Moreover, the relative viability in the assay with AZ505 + Bortezomib (first compound 2.53 µM) is 1.09; with AZ505 + Bortezomib (first compound 8 µM), 1.04.
Turning to NCI-H3122, the relative viability was 0.971 in the assay with Dactolisib + AZD7762 (first compound 0.002 µM); 0.892 with Dactolisib + AZD7762 (first compound 0.006325 µM); 1 in the assay with Dactolisib + AZD7762 (first compound 0.02 µM); 0.953 in the assay with Dactolisib + AZD7762 (first compound 0.06325 µM); 0.488 in the assay with Dactolisib + AZD7762 (first compound 0.2 µM); 0.255 in the assay with AZ505 + Crizotinib (first compound 0.08 µM). Also, the relative viability with AZ505 + Crizotinib (first compound 0.253 µM) came out at 0.275; with AZ505 + Crizotinib (first compound 0.8 µM), 0.299; in the assay with AZ505 + Crizotinib (first compound 2.53 µM) it was 0.268; in the assay with AZ505 + Crizotinib (first compound 8 µM), 0.294; in the assay with Dactolisib + Bortezomib (first compound 0.002 µM) it was 1; in the assay with Dactolisib + Bortezomib (first compound 0.006325 µM), 0.987. In addition, the relative viability with Dactolisib + Bortezomib (first compound 0.02 µM) is 1.11; with Dactolisib + Bortezomib (first compound 0.06325 µM), 1.09; in the assay with Dactolisib + Bortezomib (first compound 0.2 µM) it was 0.927; with AZ505 + Bortezomib (first compound 0.08 µM), 1.01; with AZ505 + Bortezomib (first compound 0.253 µM), 1.02; with AZ505 + Bortezomib (first compound 0.8 µM), 1.07. Besides, the relative viability with AZ505 + Bortezomib (first compound 2.53 µM) was found to be 1.04; in the assay with AZ505 + Bortezomib (first compound 8 µM), 1.03.
For NCI-H1975, the relative viability with Dactolisib + AZD7762 (first compound 0.002 µM) came to 0.659; with Dactolisib + AZD7762 (first compound 0.006325 µM), 0.695; with Dactolisib + AZD7762 (first compound 0.02 µM) it was 0.63; with Dactolisib + AZD7762 (first compound 0.06325 µM), 0.488; in the assay with Dactolisib + AZD7762 (first compound 0.2 µM), 0.388; with AZ505 + Crizotinib (first compound 0.08 µM), 0.891. The relative viability with AZ505 + Crizotinib (first compound 0.253 µM) stood at 0.994; in the assay with AZ505 + Crizotinib (first compound 0.8 µM) it was 0.902; with AZ505 + Crizotinib (first compound 2.53 µM) it was 0.836; in the assay with AZ505 + Crizotinib (first compound 8 µM) it was 0.995; in the assay with Dactolisib + Bortezomib (first compound 0.002 µM) it was 0.362; with Dactolisib + Bortezomib (first compound 0.006325 µM), 0.338. Further, the relative viability with Dactolisib + Bortezomib (first compound 0.02 µM) was determined as 0.323; in the assay with Dactolisib + Bortezomib (first compound 0.06325 µM), 0.209; in the assay with Dactolisib + Bortezomib (first compound 0.2 µM), 0.183; with AZ505 + Bortezomib (first compound 0.08 µM), 0.333; with AZ505 + Bortezomib (first compound 0.253 µM) it was 0.41; with AZ505 + Bortezomib (first compound 0.8 µM), 0.335. The relative viability with AZ505 + Bortezomib (first compound 2.53 µM) turned out to be 0.327; in the assay with AZ505 + Bortezomib (first compound 8 µM), 0.356.
On to NCI-H1944, for which the relative viability with Dactolisib + AZD7762 (first compound 0.002 µM) was determined as 0.374; in the assay with Dactolisib + AZD7762 (first compound 0.006325 µM), 0.47; in the assay with Dactolisib + AZD7762 (first compound 0.02 µM), 0.401; with Dactolisib + AZD7762 (first compound 0.06325 µM) it was 0.24; with Dactolisib + AZD7762 (first compound 0.2 µM) it was 0.195; with AZ505 + Crizotinib (first compound 0.08 µM), 1.12. Besides, the relative viability was found to be 1.04 with AZ505 + Crizotinib (first compound 0.253 µM), 1.11 in the assay with AZ505 + Crizotinib (first compound 0.8 µM), 0.881 with AZ505 + Crizotinib (first compound 2.53 µM) and 1.15 with AZ505 + Crizotinib (first compound 8 µM).

Values taken from the supplement of paper PMC10307832.
